How the values were obtained:
[1] = Surface charge measurement (Zetasizer Nano ZS); format: physicochemical; conditions: mean±SEM, n=3, in mV (unit assumed)
[2] = Photobleaching of Ce6 fluorescence under PDT laser (671 nm); format: physicochemical; conditions: 10 minutes PDT laser 671 nm; Ce6 equivalent 2.5 μM in ethanol
Protocol: In this case, each sample (Ce6 equivalent concentration of 2.5 μM) was dissolved in ethanol and irradiated with a PDT laser (MRL-III-671, 671±1 nm, China) for 10 minutes, and then the photobleaching of Ce6 fluorescence (λ excitation/λ emission=400 nm/671 nm) of each sample was measured according to laser irradiation time, and the results are illustrated in FIG. 10.

[3] = system: brain tumor cells (U87MG); test: Uptake into brain tumor cells (confocal, FACS); format: cell-based, human; conditions: Ce6 equivalent 2.5 μM, 18 hours
Protocol: Next, DAPI mounting medium (Vector Laboratories, Inc., Burlingame, Calif., USA) was used and the intracellular Ce6 fluorescence was observed under a confocal microscope (TCS SP5, Leica, Germany).
Meanwhile, flow cytometry (FACS Calibur™; BD Biosciences, Franklin Lakes, N.J.) was used to quantify the intracellular Ce6 fluorescence. […] After washing three times with PBS, the cells were detached with trypsin/EDTA, centrifuged for 3 minutes at 1000 rpm, and then analyzed with FACS.

[4] = Hydrophobic assay (water/octanol phase transition, absorbance at 400 nm and 671 nm); format: physicochemical; conditions: dissolved in DW, octanol added
[5] = system: brain tumor (U87MG) cells; test: Phototherapy of brain tumor cells: viability, Annexin V/PI apoptosis, DCFH-DA ROS; format: cell-based, human; conditions: PDT+PTT, 2.5 minutes each
Protocol: Cell viability was measured with an EZ-Cytox kit.
Meanwhile, the intracellular ROS generation by laser irradiation was measured using the fluorescent probe DCFH-DA according to the manufacturer's instructions. Annexin V-DY-634/PI apoptosis was used to evaluate apoptosis. That is, brain tumor (U87MG) cells were suspended in 400 μL binding buffer, and then stained with Annexin V-DY-634 (5 μL) at 2 to 8° C. for 15 minutes. Next, PI (5 μL) was added and the cells were incubated for 5 min. In this case, brain tumor (U87MG) cells were analyzed using FACS.

[6] = system: Caco-2 cell monolayer; format: in vitro ADME, human
Protocol: Specifically, small intestine […] cells (Caco-2) were inoculated onto a Transwell insert with a diameter of 6.5 mm and a pore size of […] (seeding density: 2×10^4 cells/insert; Corning, Inc., Corning, N.Y., USA).
After the Caco-2 were incubated for approximately 2 to 3 weeks in a CO2 incubator, trans epithelial electrical resistance (TEER) was measured using a voltmeter (EVOM^2; World Precision Instruments, Sarasota, Fla., USA) to confirm tight junctions. In this case, the TEER value […] was used for the assay. […] During the treatment, TEER values were measured at each designated time, and the results are illustrated in FIG. 18.
Pretreated-Lf/Ce6-AuNP-Lf was used to examine passive transport excluding lactoferrin receptor (LfR)-mediated transport.
Referring to this, Lf pretreatment (pretreated-Lf) was performed to saturate LfR expressed in the Caco-2 cell monolayer, and two hours after Lf pretreatment (pretreated-Lf), the medium was exchanged with a Ce6-AuNP-Lf-containing medium.

surface charge [1]: −9.4±4.3 | hydrophobicity [4]: hydrophobic | transmittance / amount transported across the barrier [6]: about 47.6%
Substance: Chlorin e6 [Ce6]
Ce6 fluorescence after PDT laser irradiation (photobleaching) [2]: 57.0±5.6% | amount of uptake into the cells (FACS, intracellular Ce6 fluorescence) [3]: 43.6±2.2 | apoptotic cell population (Annexin-V+/PI+) [5]: 22.0%

From patent US20230173098A1, “NANOPARTICLE COMPLEX FOR ORAL ADMINISTRATION AND USES THEREOF” (IUCF-HYU (Industry-University Cooperation Foundation …, priority 2021, published 2023)
